Results published in the supplement of paper PMC9334596.

Tested on: mPer2Luc MEF
Experiment: PER2::LUC luminescence relative to vehicle control (fold of vehicle); higher = higher PER2::LUC reporter signal
Method: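 Secondary dose-response validation of 72 circadian-modulating compounds in mPer2Luc MEFs, threefold dilution series of six doses from 10 uM down to 0.04 uM. PER2::LUC luminescence read at 24 h and 30 h after treatment, normalised to vehicle (DMSO) control.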

[1] = time after treatment: 24-hour, concentration: 0.04μM
[2] = time after treatment: 24-hour, concentration: 0.37μM
[3] = time after treatment: 24-hour, concentration: 3.33μM
[4] = time after treatment: 24-hour, concentration: 10μM
[5] = time after treatment: 30-hour, concentration: 0.04μM
[6] = time after treatment: 30-hour, concentration: 0.37μM
[7] = time after treatment: 30-hour, concentration: 3.33μM
[8] = time after treatment: 30-hour, concentration: 10μM

Row | SMILES | PER2::LUC luminescence [1] | PER2::LUC luminescence [2] | PER2::LUC luminescence [3] | PER2::LUC luminescence [4] | PER2::LUC luminescence [5] | PER2::LUC luminescence [6] | PER2::LUC luminescence [7] | PER2::LUC luminescence [8]
1 | CCOC(=O)N1c2ccc(C(F)(F)F)cc2[C@@H](N(Cc2cc(C(F)(F)F)cc(C(F)(F)F)c2)C(=O)OC)C[C@H]1CC | 0.989 | 0.984 | 0.939 | 0.99 | 0.935 | 0.917 | 0.959 | 0.943
2 | CCc1cc2c(cc1N1CCC(N3CCOCC3)CC1)C(C)(C)c1[nH]c3cc(C#N)ccc3c1C2=O | 0.92 | 0.909 | 0.957 | 0.902 | 0.817 | 0.859 | 0.859 | 0.83
3 | CCc1cncnc1N1CCN(Cc2nc3ccc(C(F)(F)F)cc3[nH]2)CC1 | 1.03 | 1 | 1.01 | 1.06 | 1 | 1.03 | 1.01 | 1.03
4 | CN1CCN(C2CCC(n3cc(-c4ccc(Oc5ccccc5)cc4)c4c(N)ncnc43)CC2)CC1 (stereo unspecified) | 0.613 | 0.502 | 0.203 | 0.006 | 0.566 | 0.477 | 0.212 | 0.003
5 | CN1CCN(c2nc3ccccc3nc2Cl)CC1 | 1 | 1.02 | 1.02 | 0.958 | 1.04 | 1.05 | 1.04 | 0.971
6 | COc1cc(NC(=O)c2ccc(-c3ccc(Cl)cc3)o2)cc(OC)c1 | 0.886 | 0.894 | 0.888 | 0.875 | 0.83 | 0.878 | 0.95 | 0.864
7 | COc1ccc(-c2nc3cc(F)ccc3s2)cc1OC | 1.36 | 1.39 | 1.36 | 1.36 | 1.66 | 1.69 | 1.67 | 1.58
8 | COc1ccccc1-c1cc(Nc2cccc(CS(N)(=O)=O)c2)ncn1 | 0.961 | 0.968 | 0.971 | 0.804 | 0.841 | 0.933 | 0.964 | 0.982
9 | Cc1ccc(NC(=O)c2cccc(N(C)C)c2)cc1NC(=O)c1ccc(O)cc1 | 0.95 | 0.979 | 1.07 | 1.36 | 0.924 | 0.932 | 1.01 | 1.65
10 | Cc1ccc2nc(NCCN)c3ncc(C)n3c2c1 | 0.893 | 0.859 | 0.768 | 0.028 | 0.841 | 0.784 | 0.594 | 0.03
11 | Nc1nc(N)c2nc(-c3cccc(O)c3)cnc2n1 | 0.893 | 0.833 | 0.854 | 0.608 | 0.829 | 0.88 | 0.803 | 0.578
12 | Nc1nccc(Oc2ccc(NC(=O)c3c[nH]cc(-c4ccc(F)cc4)c3=O)cc2F)c1Cl | 1 | 1.02 | 1.03 | 1.12 | 1.06 | 1.03 | 0.929 | 1
13 | Nc1ncnc2c1C(=O)N(c1ccc([C@H]3CC[C@H](CC(=O)O)CC3)cc1)CCO2 | 1.04 | 0.984 | 1 | 1 | 1.03 | 0.966 | 1.06 | 1.01
14 | O=C(Nc1cccc(Cl)c1)c1ccccn1 | 1.06 | 1.28 | 1.51 | 1.81 | 1.06 | 1.29 | 1.57 | 1.92
15 | O=c1cc(N2CCOCC2)oc2c(-c3cccc4c3sc3ccccc34)cccc12 | 0.952 | 0.951 | 1.05 | 1.07 | 0.952 | 0.931 | 1.08 | 1.09
16 | OCc1ccc(-c2ccc(-c3ccc(CO)s3)o2)s1 | 1.37 | 1.41 | 1.49 | 1.24 | 1.62 | 1.63 | 1.68 | 1.41
17 | Cc1cccc(/C=N/Nc2cc(N3CCOCC3)n3nc(-c4ccncc4)cc3n2)c1 [APY0201] | 0.206 | 0.187 | 0.151 | 0.04 | 0.16 | 0.145 | 0.117 | 0.038
18 | CCN1CCN(Cc2ccc(NC(=O)Nc3ccc(Oc4cc(NC)ncn4)cc3)cc2C(F)(F)F)CC1 [AST 487] | 0.843 | 0.869 | 0.792 | 0.031 | 0.918 | 0.891 | 0.951 | 0.023
19 | CCCCN(CCCC)C(=O)CN1C[C@H](c2ccc3c(c2)OCO3)[C@@H](C(=O)O)[C@@H]1c1ccc(OC)cc1 [ATRASENTAN] | 1.16 | 1.17 | 1.5 | 2.41 | 1.19 | 1.16 | 1.47 | 2.31
20 | CN1CCN(S(=O)(=O)c2ccc(-c3cnc(N)c(C(=O)Nc4cccnc4)n3)cc2)CC1 [AZD2858] | 1.18 | 1.37 | 1.01 | 0.842 | 0.938 | 1.16 | 0.874 | 0.676
21 | COc1cc(CCc2cc(NC(=O)c3ccc(N4CC(C)NC(C)C4)cc3)n[nH]2)cc(OC)c1 (stereo unspecified) [AZD4547] | 0.792 | 0.795 | 0.679 | 0.329 | 0.796 | 0.73 | 0.643 | 0.278
22 | COc1cc(NS(C)(=O)=O)ccc1Nc1c2ccccc2nc2ccccc12 [Amsacrine] | 0.726 | 0.768 | 0.663 | 0.603 | 0.43 | 0.474 | 0.379 | 0.285
23 | COc1ccc(C[C@H]2NC[C@H](O)[C@H]2OC(C)=O)cc1 [Anisomycin] | 0.056 | 0.032 | 0.002 | 0.001 | 0.06 | 0.05 | 0.001 | 0.001
24 | COc1ccc(CCN2CCC(Nc3nc4ccccc4n3Cc3ccc(F)cc3)CC2)cc1 [Astemizole] | 0.895 | 0.815 | 0.543 | 0.026 | 0.783 | 0.79 | 0.67 | 0.009
25 | CC[C@@H]1C(=O)N(C)c2cnc(Nc3ccc(C(=O)N[C@H]4CC[C@H](N5CCN(CC6CC6)CC5)CC4)cc3OC)nc2N1C(C)C [BI-6727 (Volasertib)] | 0.71 | 0.565 | 0.287 | 0.074 | 0.679 | 0.574 | 0.326 | 0.08
26 | C/C(=C\C(=O)Nc1ccccc1C(=O)O)c1ccc2ccccc2c1 [BIBR 1532] | 0.94 | 0.97 | 0.991 | 1.16 | 0.94 | 0.891 | 0.98 | 1.26
27 | CN(C)C/C=C/C(=O)Nc1cc2c(Nc3ccc(F)c(Cl)c3)ncnc2cc1O[C@H]1CCOC1 [BIBW2992 DiMaleate] | 0.774 | 0.77 | 0.48 | 0.026 | 0.705 | 0.696 | 0.442 | 0.028
